Assay results published in patent US10202330B2, “Lysine specific demethylase-1 inhibitors and their use” (ORYZON GENOMICS S.A., priority 2010, dated 2019).
Structures can show the parent of a compound that is named as a salt. Where two headings read alike, the source gives them in different places.

Experiments:
[1] = target: Human recombinant LSD1 protein (Homo sapiens (Human), UniProt O60341); test: LSD1 inhibition, Amplex Red peroxide/peroxidase-coupled assay with di-methylated H3-K4 peptide; format: biochemical
Description: The demethylase activity was estimated, under aerobic conditions, by measuring the release of H2O2 produced during the catalytic process, using the Amplex® Red peroxide/peroxidase-coupled assay kit (Invitrogen).
Within the experiment, each concentration of inhibitor was tested in triplicate. […] The enzymatic reactions were set up in a 50 mM sodium phosphate, pH 7.4 buffer. At the end of the incubation, Amplex® Red reagent and horseradish peroxidase (HPR) solution were added to the reaction according to the recommendations provided by the supplier (Invitrogen), and left to incubate for 30 extra minutes at room temperature in the dark. A 1 μM H2O2 solution was used as a control of the kit efficiency. The conversion of the Amplex® Red reagent to resorufin due to the presence of H2O2 in the assay, was monitored by fluorescence (excitation at 540 nm, emission at 590 nm) using a microplate reader (Infinite 200, Tecan). Arbitrary units were used to measure level of H2O2 produced in the absence and/or in the presence of inhibitor.
The Ki (IC50) of each inhibitor was estimated at half of the maximum activity.

[2] = target: Human recombinant monoamine oxidase MAO-A (Homo sapiens (Human), UniProt P21397); test: Monoamine oxidase assay, kynuramine to 4-hydroxyquinoline fluorescence; format: biochemical; settings: Ki (IC50) at Vmax/2; two ranges listed = near the boundary
Excerpt: (§1) In order to monitor MAO enzymatic activities and/or their inhibition rate by inhibitor(s) of interest, a fluorescent-based (inhibitor)-screening assay was set up. 3-(2-Aminophenyl)-3-oxopropanamine (kynuramine dihydrobromide, Sigma Aldrich), a non fluorescent compound was chosen as a substrate. Kynuramine is a non-specific substrate for both MAOs activities. While undergoing oxidative deamination by MAO activities, kynuramine is converted into 4-hydroxyquinoline (4-HQ), a resulting fluorescent product.
(§2) The monoamine oxidase activity was estimated by measuring the conversion of kynuramine into 4-hydroxyquinoline. Assays were conducted in 96-well black plates with clear bottom (Corning) in a final volume of 100 μL. The assay buffer was 100 mM HEPES, pH 7.5. Each experiment was performed in triplicate within the same experiment.
(§3) The oxidative deamination of the substrate was stopped by adding 50 μL (v/v) of NaOH 2N. […] Arbitrary units were used to measure levels of fluorescence produced in the absence and/or in the presence of inhibitor.
(§4) The Ki (IC50) of each inhibitor was determined at Vmax/2.

[3] = target: Human recombinant monoamine oxidase MAO-B (Homo sapiens (Human), UniProt P27338); test: as above; format: biochemical; settings: Ki (IC50) at Vmax/2; two ranges listed = near the boundary
Excerpt: as §1, §2, §3, §4

[4] = system: human colon cancer cell line HCT116; test: Cancer cell line study, alamarBlue viability assay; format: cell-based; settings: HCT-116, read-out: EC50 (dose required to inhibit cell growth by 50%), HCT116, 72 hours
Description: The HCT116 cell line was maintained in DMEM GlutaMAX (Invitrogen) supplemented with 10% fetal calf serum.
Cells were grown in a humidified incubator at 37° C. in 5% CO2.
Cells were plated in 96-well plates at a density of 6000 cells/well in 100 μl medium 24 h before addition of drugs. […] To do so, a drugs-dilution plate at twice the screening concentrations was prepared. 72 hours later, alamarBlue (Biosource, Invitrogen) viability assay was performed following manufacturer's protocol. In brief, alamarBlue diluted in media was added to cells to have a 5% solution. Cells were incubated at 37° C., 3 hours and at room temperature, 30 min. Cells with no drug and, cells with no drug and lysed with triton X-100 were used as controls. Fluorescence was monitored at 530 nm excitation and 590 nm emission wavelengths. Results were quantified using Infinite F200 Microplate Reader (Tecan Group, Ltd.).

[5] = Ki (IC50) at half of the maximum activity, two ranges listed = near the boundary, read-out: LSD1 (Ki)

| Structure (SMILES) | Ki [1, 5] [nM] | Ki [2] [nM] | Ki [3] [nM] | Ki [1] [nM] | EC50 [4] [nM] | MAO-B (Ki) [3] | LSD1 (Ki) ([1]; Ki (IC50) at half of the maximum activity, two ranges listed = near the boundary) |
| --- | --- | --- | --- | --- | --- | --- | --- |
| c1ccc([C@H]2C[C@@H]2NCCCC2CCCCC2)cc1 (relative stereo) [Example 13, (Trans)-N-(3-cyclohexylpropyl)-2-phenylcyclopropanamine hydrochloride] | 100 to 1000 | 1000 to 40000 | 1000 to 40000 |  |  |  |  |
| c1ccc([C@H]2C[C@@H]2NCCC2CCCCCC2)cc1 (relative stereo) [Example 14, (Trans)-N-(2-cycloheptylethyl)-2-phenylcyclopropanamine hydrochloride] | 100 to 1000 | 1000 to 40000 | 1000 to 40000 |  |  |  |  |
| Brc1cccc(COc2ccc([C@H]3C[C@@H]3NCCC3CCCCC3)cc2)c1 (relative stereo) [Example 15, (Trans)-2-(4-(3-bromobenzyloxyl)phenyl)-N-(2-cyclohexylethyl)cyclopropanamine hydrochloride] |  | 1000 to 40000 | 100 to 1000 | 100 to 1000 | ~13300 |  |  |
| COc1ccc2c(c1)C(N[C@@H]1C[C@H]1c1ccc(OCc3ccccc3)cc1)CCC2 (relative stereo) [Example 20, N-((trans)-2-(4-(benzyloxy)phenyl)cyclopropyl)-7-methoxy-1,2,3,4-tetrahydronaphthalen-1-amine] | 100 to 1000 | 1000 to 40000 | 1000 to 40000 |  |  |  |  |
| COc1ccc2c(c1)C(N[C@H]1CC1c1ccc(OCc3ccccc3)cc1)CC2.Cl (stereo in doubt) [Example 1, N-((trans)-2-(4-(benzyloxy)phenyl)cyclopropyl)-6-methoxy-2,3-dihydro-1H-inden-1-amine hydrochloride] |  | 1000 to 40000 |  |  |  | II, III |  |
| COc1ccc2c(c1OC)CCC2N[C@H]1CC1c1ccc(OCc2ccccc2)cc1.Cl (stereo in doubt) [Example 3, N-((trans)-2-(4-(benzyloxy)phenyl)cyclopropyl)-4,5-dimethoxy-2,3-dihydro-1H-inden-1-amine hydrochloride] |  | 1000 to 40000 | 1000 to 40000 |  | ~37000 |  | II, III |
| c1ccc(C2C[C@@H]2NC2CCc3ccccc32)cc1 (stereo in doubt) [Example 4, N-((trans)-2-phenylcyclopropyl)-2,3-dihydro-1H-inden-1-amine hydrochloride] |  | 1000 to 40000 |  |  |  |  |  |
| COc1ccc2c(c1)C(N[C@H]1CC1c1ccccc1)CC2 (stereo in doubt) [Example 5, 6-methoxy-N-((trans)-2-phenylcyclopropyl)-2,3-dihydro-1H-inden-1-amine] |  | 1000 to 40000 |  |  |  |  |  |
| Clc1ccc2c(c1)C(N[C@H]1CC1c1ccccc1)CC2 (stereo in doubt) [Example 6, 6-chloro-N-((trans)-2-phenylcyclopropyl)-2,3-dihydro-1H-inden-1-amine hydrochloride] | 100 to 1000 | 1000 to 40000 | 1000 to 40000 |  |  |  |  |
| COc1ccc2c(c1)C(N[C@H]1CC1c1ccccc1)CCC2 (stereo in doubt) [Example 8, 7-methoxy-N-((trans)-2-phenylcyclopropyl)-1,2,3,4-tetrahydronaphthalen-1-amine] | 100 to 1000 | 1000 to 40000 | 1000 to 40000 |  |  |  |  |
| COc1cccc(-c2ccc(C3C[C@@H]3NC3CCc4ccc(OC)cc43)cc2)c1 (stereo in doubt) [Example 11, 6-methoxy-N-((trans)-2-(3′-methoxybiphenyl-4-yl)cyclopropyl)-2,3-dihydro-1H-inden-1-amine hydrochloride] |  | 1000 to 40000 |  |  |  |  |  |
| COc1ccc2c(c1)C(N[C@H]1CC1c1ccc(OCc3cccc(Br)c3)cc1)CC2 (stereo in doubt) [Example 16, N-((trans)-2-(4-(3-bromobenzyloxyl)phenyl)cyclopropyl)-6-methoxy-2,3-dihydro-1H-inden-1-amine hydrochloride] | 100 to 1000 | 1000 to 40000 | 1000 to 40000 |  |  |  |  |
